Assay results as given in PMC4374931 (PLoS ONE, 2015).
Structures can show the parent of a compound that is named as a salt. Where two headings read alike, the source gives them in different places.

Legend:
in vitro = format: cell-based; details: human
Description: (§1) AIZ-AR cells were seeded in 96-well plates at density 5x10^4 cells per well. […] Following the incubation, MTT assay was measured spectrophotometrically at 540 nm using Tecan Infinite M2000 plate luminometer.

human androgen receptor = human androgen receptor (Homo sapiens, UniProt P10275); assay: Gene reporter assay in AIZ-AR cells, agonist mode (luciferase); format: cell-based
Description: AIZ-AR cells were seeded in 96-well plates at density 5x10^4 cells per well. […] After the treatments, cells were lysed and luciferase activity was measured in 96-well plate format using Tecan Infinite M2000 plate luminometer.
Dose-response analyses assays were performed in two different experimental layouts. […] Where appropriate, IC50 (half maximal inhibitory concentration) values were calculated.

androgen receptor [1] = target: androgen receptor; design: method as in Wilkinson et al.; details: published data; ref Wilkinson et al.; cited from earlier work
androgen receptor [2] = target: androgen receptor; design: method as in Sedlak et al.; details: published data; ref Sedlak et al.; cited from earlier work
AIZ-AR cells = assay: in vitro; format: cell-based; details: 24 h, MTT
Description: as §1

[3] = log c -5, 24 h, MTT, read-out: % of viability
[4] = log c -6, 24 h, MTT, read-out: % of viability
[5] = log c -7, 24 h, MTT, read-out: % of viability
[6] = log c -8, 24 h, MTT, read-out: % of viability
[7] = log c -9, 24 h, MTT, read-out: % of viability
[8] = log c -10, 24 h, MTT, read-out: % of viability

Chain of human androgen receptor (P10275 whole entry): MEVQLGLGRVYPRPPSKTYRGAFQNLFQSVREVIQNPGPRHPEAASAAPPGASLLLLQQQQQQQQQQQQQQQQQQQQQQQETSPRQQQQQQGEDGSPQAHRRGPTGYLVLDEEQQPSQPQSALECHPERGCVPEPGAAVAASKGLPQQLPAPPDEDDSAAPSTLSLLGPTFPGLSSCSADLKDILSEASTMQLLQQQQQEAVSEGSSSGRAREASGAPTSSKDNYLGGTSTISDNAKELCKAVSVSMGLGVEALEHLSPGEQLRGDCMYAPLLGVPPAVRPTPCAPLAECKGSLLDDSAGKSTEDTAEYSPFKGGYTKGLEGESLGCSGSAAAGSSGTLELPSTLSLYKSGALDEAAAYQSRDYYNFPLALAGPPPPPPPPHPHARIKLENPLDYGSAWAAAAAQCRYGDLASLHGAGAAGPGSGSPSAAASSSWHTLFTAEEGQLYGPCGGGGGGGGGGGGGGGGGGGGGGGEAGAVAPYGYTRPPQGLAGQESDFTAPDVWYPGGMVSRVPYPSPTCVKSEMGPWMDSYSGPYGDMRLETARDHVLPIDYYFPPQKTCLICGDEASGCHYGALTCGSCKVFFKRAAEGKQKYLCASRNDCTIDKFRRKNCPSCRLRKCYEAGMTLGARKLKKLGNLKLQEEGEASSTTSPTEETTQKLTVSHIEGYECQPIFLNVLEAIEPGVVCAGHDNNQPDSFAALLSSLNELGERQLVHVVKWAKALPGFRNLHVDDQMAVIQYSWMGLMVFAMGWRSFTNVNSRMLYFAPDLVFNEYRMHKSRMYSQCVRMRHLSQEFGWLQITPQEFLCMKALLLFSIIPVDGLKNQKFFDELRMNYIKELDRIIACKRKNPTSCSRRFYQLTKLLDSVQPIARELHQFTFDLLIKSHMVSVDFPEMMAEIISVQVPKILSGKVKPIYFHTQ

| Compound | viability at 24 h, 0.1 nM (in vitro) [%] | viability at 24 h, 1 nM (in vitro) [%] | viability at 24 h, 10 nM (in vitro) [%] | viability at 24 h, 100 nM (in vitro) [%] | viability at 24 h, 1 μM (in vitro) [%] | viability at 24 h, 10 μM (in vitro) [%] | also measured |
| --- | --- | --- | --- | --- | --- | --- | --- |
| C[C@]12C=CC(=O)C=C1CC[C@@H]1[C@@H]2[C@@H](O)C[C@@]2(C)[C@H]1CC[C@]2(O)C(=O)CO [Prednisolone, prednisolone] | 100 | 100.7 ± 0.8 | 104 ± 3.7 | 107 ± 5.2 | 104 ± 5.2 | 101 ± 8.3 | – |
| CC(=O)[C@H]1CC[C@H]2[C@@H]3CCC4=CC(=O)CC[C@]4(C)[C@H]3CC[C@]12C [Progesterone, progesterone] | 100 | 98.7 ± 7.3 | 98.7 ± 12.2 | 99.8 ± 14.1 | 98.1 ± 13.9 | 91 ± 9.5 | – |
| C[C@]12C[C@H](O)[C@H]3[C@@H](CCC4=CC(=O)CC[C@@]43C)[C@@H]1CC[C@@H]2C(=O)CO [Corticosterone, corticosterone] | 100 | 104 | 107 ± 2.5 | 111 ± 5.7 | 109 ± 6.5 | 105 ± 3.4 | – |
| C[C@H]1C[C@@H]2[C@H]([C@@H](O)C[C@@]3(C)[C@H]2CC[C@]3(O)C(=O)CO)[C@@]2(C)C=CC(=O)C=C12 [Methyl-prednisolone, methylprednisolone] | 100 | 107 ± 3.1 | 111 ± 9.4 | 105 ± 8.9 | 105 ± 14.3 | 105 ± 16 | Log EC50 (human androgen receptor; Clone 8, 24 h): -7.60 ± 0.43; Log EC50 (human androgen receptor; Clone 14, 24 h): -7.48 ± 0.30; Literature Log EC50 (androgen receptor [1]): -8.75 |
| C#C[C@]1(O)CC[C@H]2[C@@H]3CCC4=Cc5oncc5C[C@]4(C)[C@H]3CC[C@@]21C [Danazol] | 100 | 106 ± 1.5 | 108 ± 6.9 | 109 ± 10.6 | 108 ± 11.6 | 114 ± 12.1 | – |
| C[C@@H]1C[C@H]2[C@@H]3CCC4=CC(=O)C=C[C@]4(C)[C@@]3(F)[C@@H](O)C[C@]2(C)[C@@]1(O)C(=O)CO [Dexamethasone, dexamethasone] | 100 | 99.8 ± 3.9 | 114 ± 2 | 112.7 ± 1.1 | 111 ± 3.4 | 108 ± 2.6 | – |
| C[C@]12CC[C@H]3[C@@H](CCC4=CC(=O)CC[C@@]43C)[C@@H]1CC[C@@H]2O [Testosterone, testosterone] | – | – | – | – | – | – | viability at 24 h, 10 μM (in vitro; [3]): 105.3 ± 1%; viability at 24 h, 1 μM (in vitro; [4]): 105 ± 6.9%; viability at 24 h, 100 nM (in vitro; [5]): 103 ± 5.6%; viability at 24 h, 10 nM (in vitro; [6]): 108 ± 4.8%; viability at 24 h, 1 nM (in vitro; [7]): 108.6 ± 1%; viability at 24 h, 0.1 nM (in vitro; [8]): 100% |
| C[C@]12CC[C@@H]3c4ccc(O)cc4CC[C@H]3[C@@H]1CC[C@@H]2O [17β-estradiole, estradiol] | 100 | 107 ± 4.3 | 110 ± 3.2 | 110 ± 6.2 | 110 ± 6.2 | 116 ± 16.4 | – |
| C[C@H]1C[C@H]2[C@@H]3CCC4=CC(=O)C=C[C@]4(C)[C@@]3(F)[C@@H](O)C[C@]2(C)[C@@]1(O)C(=O)CO [Betamethasone, betamethasone] | 100 | 105 ± 4 | 110 ± 7.3 | 109 ± 7.9 | 108 ± 14.6 | 101 ± 9.9 | – |
| C[C@]12CCC(=O)C=C1CC[C@@H]1[C@@H]2[C@@H](O)C[C@@]2(C)[C@H]1CC[C@]2(O)C(=O)CO [Cortisol, cortisol] | – | – | – | – | – | – | potency weaker as compared to androgens (human androgen receptor): 2–3 orders of magnitude; effect on luciferase activity in agonist mode (human androgen receptor; 24 h): induced luciferase activity; Log EC50 (human androgen receptor; Clone 8, 24 h): -6.35 ± 0.11; Log EC50 (human androgen receptor; Clone 14, 24 h): -6.49 ± 0.04; viability at 24 h, 10 μM (in vitro; [3]): 105 ± 10.4%; viability at 24 h, 1 μM (in vitro; [4]): 107 ± 12.3%; viability at 24 h, 100 nM (in vitro; [5]): 107 ± 13.2%; viability at 24 h, 10 nM (in vitro; [6]): 106 ± 9.1%; viability at 24 h, 1 nM (in vitro; [7]): 109 ± 4.1%; viability at 24 h, 0.1 nM (in vitro; [8]): 100%; Literature Log EC50 (androgen receptor [2]): > -5.00; Literature Log EC50 (androgen receptor [1]): -8.22 |
| C[C@]12CCC(=O)C[C@@H]1CC[C@@H]1[C@@H]2CC[C@]2(C)[C@@H](O)CC[C@@H]12 [5α-dihydrotestosterone] | – | – | – | – | – | – | viability at 24 h, 10 μM (in vitro; [3]): 104 ± 2%; viability at 24 h, 1 μM (in vitro; [4]): 108 ± 2.6%; viability at 24 h, 100 nM (in vitro; [5]): 114 ± 5.7%; viability at 24 h, 10 nM (in vitro; [6]): 109 ± 2.1%; viability at 24 h, 1 nM (in vitro; [7]): 108 ± 4.6%; viability at 24 h, 0.1 nM (in vitro; [8]): 100% |
| CC(=O)S[C@@H]1CC2=CC(=O)CC[C@]2(C)[C@H]2CC[C@@]3(C)[C@@H](CC[C@@]34CCC(=O)O4)[C@H]12 [Spironolactone, spironolactone] | 100 | 108 ± 1.5 | 112 ± 5.7 | 113 ± 10 | 98.9 ± 5.5 | 58.9 ± 2.5 | – |
| CC(=O)[C@H]1CC[C@H]2[C@@H]3CCC4=CC(=O)CC[C@]4(C)[C@H]3CC[C@]12C [17α-progesterone] | – | – | – | – | – | – | % of viability (AIZ-AR cells; log c -5): 92.0 ± 3.7%; % of viability (AIZ-AR cells; log c -6): 92.0 ± 3.7%; % of viability (AIZ-AR cells; log c -7): 95.0 ± 4.0%; % of viability (AIZ-AR cells; log c -8): 95.0 ± 4.0%; % of viability (AIZ-AR cells; log c -9): 98.2 ± 2.6% |
| C[C@]12C=CC(=O)C=C1CC[C@H]1[C@@H]3C[C@@H](O)[C@](O)(C(=O)CO)[C@@]3(C)C[C@H](O)[C@@]12F [Triamcinolone, triamcinolone] | 100 | 101 ± 4.2 | 100 ± 8.2 | 105 ± 11.4 | 103 ± 11 | 101 ± 5.4 | – |
| CC/C(=C(\c1ccccc1)c1ccc(OCCN(C)C)cc1)c1ccccc1 [Tamoxifen citrate, tamoxifen citrate salt] | 100 | 103 ± 4.3 | 107 ± 4.6 | 106 ± 3.8 | 88.5 ± 2.4 | 1.7 ± 0.8 | – |
| C[C@H]1C[C@H]2[C@@H]3CCC4=CC(=O)C=C[C@]4(C)[C@@]3(Cl)[C@@H](O)C[C@]2(C)[C@@]1(O)C(=O)CO [Beclomethasone, beclomethasone] | – | – | – | – | – | – | % of viability (AIZ-AR cells; log c -5): 92.3 ± 2.1%; % of viability (AIZ-AR cells; log c -6): 98.4 ± 0.9%; % of viability (AIZ-AR cells; log c -7): 109.2 ± 5.7%; % of viability (AIZ-AR cells; log c -8): 106.5 ± 6.1%; % of viability (AIZ-AR cells; log c -9): 99.9 ± 3.9% |
| CC(=O)O[C@]1(C(C)=O)CC[C@H]2[C@@H]3C=C(Cl)C4=CC(=O)[C@@H]5C[C@@H]5[C@]4(C)[C@H]3CC[C@@]21C [Cyproterone acetate, cyproterone acetate] | 100 | 105 ± 1.7 | 105 ± 2 | 106 ± 5.7 | 99.4 ± 7.8 | 89.5 ± 6.6 | – |
| CC/C(=C(/CC)c1ccc(O)cc1)c1ccc(O)cc1 [Diethylstilbestrol, diethylstilbestrol] | 100 | 101 ± 5.1 | 102 ± 7.6 | 102 ± 5.1 | 98 ± 4.3 | 99.9 ± 7 | – |
| O=C(c1ccc(OCCN2CCCCC2)cc1)c1c(-c2ccc(O)cc2)sc2cc(O)ccc12 [Raloxifene hydrochloride, raloxifene hydrochloride] | 100 | 103 ± 8.5 | 99.8 ± 4.3 | 106 ± 6.8 | 95.9 ± 10.3 | 7.1 ± 0.2 | – |
| CC#C[C@]1(O)CC[C@H]2[C@@H]3CCC4=CC(=O)CCC4=C3[C@@H](c3ccc(N(C)C)cc3)C[C@@]21C [Mifepristone, mifepristone] | 100 | 104 ± 2.8 | 102 ± 9.7 | 104 ± 18.2 | 94.7 ± 9.5 | 41.7 ± 1.1 | – |
